Test results: patent publication US9073931B2, “Liver X receptor modulators” (Vitae Pharmaceuticals, Inc., priority 2012, dated 2015)
Read-outs that look alike come from different tables or passages of the source. Values belong to the compound of their own block, whether it stands above or below them.

Key:
LXR β LBD protein = LXR β LBD protein (Homo sapiens (Human), UniProt P55055); test: LXR β radioligand binding assay (SPA, [3H]T0901317 competition); conditions: competition with 15 nM [3H]T0901317, LXRβ LBD
Sequence of LXR β LBD protein (P55055 222-460): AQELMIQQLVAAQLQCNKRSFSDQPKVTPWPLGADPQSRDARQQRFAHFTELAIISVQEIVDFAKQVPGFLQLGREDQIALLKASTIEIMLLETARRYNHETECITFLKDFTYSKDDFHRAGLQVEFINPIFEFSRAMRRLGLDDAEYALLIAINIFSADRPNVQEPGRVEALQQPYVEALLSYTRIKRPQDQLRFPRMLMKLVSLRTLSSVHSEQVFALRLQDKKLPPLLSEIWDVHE

LBD of LXRβ [1] = target: T1, LBD of LXRβ (Homo sapiens (Human), UniProt P55055); test: cell-based
T1 sequence (P55055 222-460): as above

LBD of LXRβ [2] = target: T1, LBD of LXRβ

Compound: CC(O)c1cnc(N2CCn3c(cc4ccc(S(C)(=O)=O)cc43)C2C(C)C)nc1C(F)(F)F (single isomer, unassigned) [Compound E24c, 1-(2-(1-isopropyl-7-(methylsulfonyl)-3,4-dihydropyrazino[1,2-a]indol-2(1H)-yl)-4-(trifluoromethyl)pyrimidin-5-yl)ethanol]
Ki (LXR β LBD protein): 1690 nM
EC50 (LBD of LXRβ [2]): 18200 nM

Compound: CC(C)C1c2nc3ccc(S(C)(=O)=O)cc3n2CCN1c1ncc(C(C)(C)O)c(C(F)(F)F)n1 (racemic) [Compound E2, 2-(2-(1-isopropyl-7-(methylsulfonyl)-3,4-dihydrobenzo[4,5]imidazo[1,2-a]pyrazin-2(1H)-yl)-4-(trifluoromethyl)pyrimidin-5-yl)propan-2-ol]
Ki (LXR β LBD protein): 176 nM
EC50 (LBD of LXRβ [1]): 377 nM

Compound: CC(C)C1c2nc3ccc(S(C)(=O)=O)cc3n2CCN1c1ncc(CO)c(C(F)(F)F)n1 (racemic) [Compound E4, (2-(1-isopropyl-7-(methylsulfonyl)-3,4-dihydrobenzo[4,5]imidazo[1,2-a]pyrazin-2(1H)-yl)-4-(trifluoromethyl)pyrimidin-5-yl)methanol]
Ki (LXR β LBD protein): 137 nM
EC50 (LBD of LXRβ [1]): 293 nM

Compound: CC(O)c1cnc(N2CCn3c(cc4ccc(S(C)(=O)=O)cc43)C2C(C)C)nc1C(F)(F)F (single isomer, unassigned) [Compound E24d, 1-(2-(1-isopropyl-7-(methylsulfonyl)-3,4-dihydropyrazino[1,2-a]indol-2(1H)-yl)-4-(trifluoromethyl)pyrimidin-5-yl)ethanol]
Ki (LXR β LBD protein): > 2500 nM
EC50 (LBD of LXRβ [2]): > 20000 nM

Compound: CC(C)[C@@H]1c2nc3cc(CO)c(S(C)(=O)=O)cc3n2CCN1c1ncc(C(C)(C)O)c(C(F)(F)F)n1 (single isomer, unassigned) [Compound E7a]
Ki (LXR β LBD protein): 14 nM
EC50 (LBD of LXRβ [1]): 23 nM

Compound: CC(O)c1cnc(N2CCn3c(cc4ccc(S(C)(=O)=O)cc43)C2C(C)C)nc1C(F)(F)F (single isomer, unassigned) [Compound E24b, 1-(2-(1-isopropyl-7-(methylsulfonyl)-3,4-dihydropyrazino[1,2-a]indol-2(1H)-yl)-4-(trifluoromethyl)pyrimidin-5-yl)ethanol]
Ki (LXR β LBD protein): 20 nM
EC50 (LBD of LXRβ [2]): 150 nM

Compound: CCCC(O)c1cnc(N2CCn3c(nc4cc(CO)c(S(C)(=O)=O)cc43)[C@H]2C(C)C)nc1C(F)(F)F (single isomer, unassigned) [Compound E11b]
Ki (LXR β LBD protein): 23 nM
EC50 (LBD of LXRβ [1]): 103 nM

Compound: CC(C)[C@@H]1c2nc3cc(CO)c(S(C)(=O)=O)cc3n2CCN1c1ncc(C(N)=O)c(C(F)(F)F)n1 (single isomer, unassigned) [Compound E15a]
Ki (LXR β LBD protein): 240 nM
EC50 (LBD of LXRβ [1]): > 20000 nM

Compound: CC(C)[C@@H]1c2cc3ccc(S(C)(=O)=O)cc3n2CCN1c1ncc(CO)c(C(F)(F)F)n1 [Compound E25a, (R)-(2-(1-isopropyl-7-(methylsulfonyl)-3,4-dihydropyrazino[1,2-a]indol-2(1H)-yl)-4-(trifluoromethyl)pyrimidin-5-yl)methanol]
Ki (LXR β LBD protein): 6 nM
EC50 (LBD of LXRβ [2]): 83 nM

Compound: CC(=O)c1cnc(N2CCn3c(cc4ccc(S(C)(=O)=O)cc43)[C@H]2C(C)C)nc1C(F)(F)F [Compound E22a, (R)-1-(2-(1-isopropyl-7-(methylsulfonyl)-3,4-dihydropyrazino[1,2-a]indol-2(1H)-yl)-4-(trifluoromethyl)pyrimidin-5-yl)ethanone]
Ki (LXR β LBD protein): 12 nM
EC50 (LBD of LXRβ [2]): 107 nM

Compound: CC(=O)c1cnc(N2CCn3c(nc4ccc(S(C)(=O)=O)cc43)C2C(C)C)nc1C(F)(F)F (racemic) [Compound E1, 1-(2-(1-isopropyl-7-(methylsulfonyl)-3,4-dihydrobenzo[4,5]imidazo[1,2-a]pyrazin-2(1H)-yl)-4-(trifluoromethyl)pyrimidin-5-yl)ethanone]
Ki (LXR β LBD protein): 191 nM
EC50 (LBD of LXRβ [1]): 350 nM

Compound: CC(C)[C@H]1c2cc3ccc(S(C)(=O)=O)cc3n2CCN1c1ncc(CO)c(C(F)(F)F)n1 [Compound E25b, (S)-(2-(1-isopropyl-7-(methylsulfonyl)-3,4-dihydropyrazino[1,2-a]indol-2(1H)-yl)-4-(trifluoromethyl)pyrimidin-5-yl)methanol]
Ki (LXR β LBD protein): > 2500 nM
EC50 (LBD of LXRβ [2]): 10800 nM

Compound: CCCC(O)c1cnc(N2CCn3c(nc4cc(CO)c(S(C)(=O)=O)cc43)[C@H]2C(C)C)nc1C(F)(F)F (single isomer, unassigned) [Compound E11a]
Ki (LXR β LBD protein): 14 nM
EC50 (LBD of LXRβ [1]): 68 nM

Compound: CC(=O)c1cnc(N2CCn3c(cc4ccc(S(C)(=O)=O)cc43)[C@@H]2C(C)C)nc1C(F)(F)F [Compound E22b, (S)-1-(2-(1-isopropyl-7-(methylsulfonyl)-3,4-dihydropyrazino[1,2-a]indol-2(1H)-yl)-4-(trifluoromethyl)pyrimidin-5-yl)ethanone]
Ki (LXR β LBD protein): > 2500 nM
EC50 (LBD of LXRβ [2]): 11500 nM

Compound: CC(C)[C@H]1c2nc3cc(CO)c(S(C)(=O)=O)cc3n2CCN1c1ncc(C(C)(C)O)c(C(F)(F)F)n1 (single isomer, unassigned) [Compound E7b]
Ki (LXR β LBD protein): > 2500 nM
EC50 (LBD of LXRβ [1]): 2180 nM

Compound: CCOC(=O)c1cnc(N2CCn3c(nc4cc(CO)c(S(C)(=O)=O)cc43)[C@H]2C(C)C)nc1C(F)(F)F [Compound E12, (R)-ethyl 2-(8-(hydroxymethyl)-1-isopropyl-7-(methylsulfonyl)-3,4-dihydrobenzo[4,5]imidazo[1,2-a]pyrazin-2(1H)-yl)-4-(trifluoromethyl)pyrimidine-5-carboxylate]
Ki (LXR β LBD protein): 6 nM
EC50 (LBD of LXRβ [1]): 50 nM

The remaining lines, values ahead:

Ki (LXR β LBD protein): 10 nM
EC50 (LBD of LXRβ [1]): 17 nM
Compound: COC(=O)c1cnc(N2CCn3c(nc4cc(CO)c(S(C)(=O)=O)cc43)[C@H]2C(C)C)nc1C(F)(F)F [Compound E30, (R)-methyl 2-(8-(hydroxymethyl)-1-isopropyl-7-(methylsulfonyl)-3,4-dihydrobenzo[4,5]imidazo[1,2-a]pyrazin-2(1H)-yl)-4-(trifluoromethyl)pyrimidine-5-carboxylate]

Ki (LXR β LBD protein): 2440 nM
EC50 (LBD of LXRβ [2]): 1340 nM
Compound: CC(C)[C@H]1c2cc3ccc(S(C)(=O)=O)cc3n2CCN1c1ncc(C(C)(C)O)c(C(F)(F)F)n1 [Compound E23b, (S)-2-(2-(1-isopropyl-7-(methylsulfonyl)-3,4-dihydropyrazino[1,2-a]indol-2(1H)-yl)-4-(trifluoromethyl)pyrimidin-5-yl)propan-2-ol]

Ki (LXR β LBD protein): > 2500 nM
EC50 (LBD of LXRβ [1]): > 20000 nM
Compound: CC(C)[C@H]1c2nc3cc(CO)c(S(C)(=O)=O)cc3n2CCN1c1ncc(C(N)=O)c(C(F)(F)F)n1 (single isomer, unassigned) [Compound E15b]

Ki (LXR β LBD protein): 10 nM
EC50 (LBD of LXRβ [1]): 10 nM
Compound: Cc1cnc(N2CCn3c(nc4cc(CO)c(S(C)(=O)=O)cc43)[C@H]2C(C)C)nc1C(F)(F)F [Compound E21, (R)-(1-isopropyl-2-(5-methyl-4-(trifluoromethyl)pyrimidin-2-yl)-7-(methylsulfonyl)-1,2,3,4-tetrahydrobenzo[4,5]imidazo[1,2-a]pyrazin-8-yl)methanol]

Ki (LXR β LBD protein): 712 nM
EC50 (LBD of LXRβ [2]): 1440 nM
Compound: CC(C)C1c2cc3cc(CO)c(S(C)(=O)=O)cc3n2CCN1c1ncc(C(C)(C)O)c(C(F)(F)F)n1 (single isomer, unassigned) [Compound E27b, 2-(2-(8-(hydroxymethyl)-1-isopropyl-7-(methylsulfonyl)-3,4-dihydropyrazino[1,2-a]indol-2(1H)-yl)-4-(trifluoromethyl)pyrimidin-5-yl)propan-2-ol]

Ki (LXR β LBD protein): 8 nM
EC50 (LBD of LXRβ [1]): 24 nM
Compound: COc1nc(N2CCn3c(nc4cc(CO)c(S(C)(=O)=O)cc43)[C@H]2C(C)C)ncc1C(F)(F)F [Compound E18, (R)-(1-isopropyl-2-(4-methoxy-5-(trifluoromethyl)pyrimidin-2-yl)-7-(methylsulfonyl)-1,2,3,4-tetrahydrobenzo[4,5]imidazo[1,2-a]pyrazin-8-yl)methanol]

Ki (LXR β LBD protein): 7 nM
EC50 (LBD of LXRβ [1]): 16 nM
Compound: CC(=O)c1cnc(N2CCn3c(cc4cc(CO)c(S(C)(=O)=O)cc43)C2C(C)C)nc1C(F)(F)F (racemic) [Compound E26, (±)-1-(2-(8-(hydroxymethyl)-1-isopropyl-7-(methylsulfonyl)-3,4-dihydropyrazino[1,2-a]indol-2(1H)-yl)-4-(trifluoromethyl)pyrimidin-5-yl)ethanone]

Ki (LXR β LBD protein): > 2500 nM
EC50 (LBD of LXRβ [1]): > 20000 nM
Compound: CC(C)[C@H]1c2nc3cc(CO)c(S(C)(=O)=O)cc3n2CCN1c1ncc(CO)c(C2CC2)n1 (single isomer, unassigned) [Compound E20b]

Ki (LXR β LBD protein): 220 nM
EC50 (LBD of LXRβ [1]): > 20000 nM
Compound: CC(C)[C@@H]1c2nc3cc(CO)c(S(C)(=O)=O)cc3n2CCN1c1ncc(C(=O)N(C)C)c(C(F)(F)F)n1 (single isomer, unassigned) [Compound E17a]

Ki (LXR β LBD protein): 21 nM
EC50 (LBD of LXRβ [2]): 306 nM
Compound: CC(C)[C@@H]1c2cc3ccc(S(C)(=O)=O)cc3n2CCN1c1ncc(C(C)(C)O)c(C(F)(F)F)n1 [Compound E23a, (R)-2-(2-(1-isopropyl-7-(methylsulfonyl)-3,4-dihydropyrazino[1,2-a]indol-2(1H)-yl)-4-(trifluoromethyl)pyrimidin-5-yl)propan-2-ol]

Ki (LXR β LBD protein): 5 nM
EC50 (LBD of LXRβ [1]): 72 nM
Compound: CCOC(=O)c1cnc(N2CCn3c(cc4cc(CO)c(S(C)(=O)=O)cc43)C2C(C)C)nc1C(F)(F)F (racemic) [Compound E28, (±)-Ethyl 2-(8-(hydroxymethyl)-1-isopropyl-7-(methylsulfonyl)-3,4-dihydropyrazino[1,2-a]indol-2(1H)-yl)-4-(trifluoromethyl)pyrimidine-5-carboxylate]

Ki (LXR β LBD protein): > 2500 nM
EC50 (LBD of LXRβ [1]): 4900 nM
Compound: CC(C)[C@H]1c2nc3cc(CO)c(S(C)(=O)=O)cc3n2CCN1c1ncc(C(=O)N(C)C)c(C(F)(F)F)n1 (single isomer, unassigned) [Compound E17b]

Ki (LXR β LBD protein): 2 nM
EC50 (LBD of LXRβ [2]): 10 nM
Compound: CC(C)C1c2cc3cc(CO)c(S(C)(=O)=O)cc3n2CCN1c1ncc(C(C)(C)O)c(C(F)(F)F)n1 (single isomer, unassigned) [Compound E27a, 2-(2-(8-(hydroxymethyl)-1-isopropyl-7-(methylsulfonyl)-3,4-dihydropyrazino[1,2-a]indol-2(1H)-yl)-4-(trifluoromethyl)pyrimidin-5-yl)propan-2-ol]

Ki (LXR β LBD protein): 110 nM
EC50 (LBD of LXRβ [1]): > 20000 nM
Compound: CC(C)[C@@H]1c2nc3cc(CO)c(S(C)(=O)=O)cc3n2CCN1c1ncc(CO)c(C2CC2)n1 (single isomer, unassigned) [Compound E20a]
